Experimental data: patent EP1785722A1, “Microbial, viral and mammalian susceptibility to agents that affect cell growth and metabolism, and compatibility of compounds” (Stratos Bio Ltd., priority 2005, dated 2007)
Entries after “also recorded” stand apart in the source; their conditions may differ.

How the values were obtained:
[1] = Animal case study: antibiotic treatment of a cat; format: in vivo; details: domestic cat with a scratch to the eye; 30 days of treatment
Experimental: A domestic cat was given a mixture of antibiotics as eye drops in response to a scratch to the eye. […] Previously the cat had never been given milk (as many animals are allergic to cow's milk). The cat was now given full cream milk as part of a regimen to promote weight gain (the cat also continued to eat its usual amount of daily cat food throughout the period of weight loss). Initially weight was gained but within 24 hours weight loss resumed (presumably because the pathogenic bacteria/viruses had found a way of utilising lactose). An autopsy indicated bone-cancer as cause of death. The body wasting caused by the weight loss was very similar to that observed in early AIDS cases. However the cat had been regularly vaccinated against HTLV 1 through its 16 year life (and had never been ill in that period).

M. flavus = experiment: Electron microscopy of M. flavus treated with Znbacitracin; format: cell-based, Micrococcus flavus; details: even at 0.05 µg/ml (0.25 x MIC)
Source text: No differences could be observed between fresh and frozen cells treated with antibiotic, which is as expected since no observable damage had occurred to the bacterial cells during freezing/thawing.

Bacillus pumilus = experiment: Flow microcalorimetry (p-t curves) of growing Bacillus pumilus; format: cell-based; details: ZNB 20 ug/ml; pH 8.00
Source text: (§1) • a) For B. pumilus a simple glucose/salts medium was employed with a glucose concentration of 0.1 % w/v. • b) For Bord. bronch. The above salts medium was used with the addition of nicotinic acid, methionine and glutamic acid. Glutamic acid was used at a concentration of 0.2% w/v. • c) For M. flavus a semidefined medium was employed, using the same salts as a B. pumilus but also Na-citrate, biotin and protease peptone. In the calorimeter a concentration of 0.4% protease peptone was used. All medium constituents (except protease) were analytical reagents. The calorimetric medium was therefore a final concentration of 100ml of either solution a, b or c freshly autoclaved for 15 mins exactly at 121°C, 151b/sq inch. Glucose was added to the appropriate solution after autoclaving.
(§2) To the vertical face of the vessel close to its base, equidistantly spaced around the circumference, ports were fitted for an oxygen electrode and for sampling/inoculation. The fermenter was closed with a flat flanged glass lid which had five ports accommodating respectively, gas inlet tube, gas exhaust (via air condenser), inlet and outlet flow-lines to and from the calorimeter. The fermenter and lid was sealed with a p.t.f.e. gasket and clamped with a metal clip. The fermenter was placed on a magnetic stirring unit in a water jacket which allowed circulation of the thermostatically controlled water at 30°C or 37°C. The fermenter which contained a Teflon coated magnetic stirring bar, was sterilised by autoclaving.
(§3) For a typical calorimetric incubation the medium was passed through the calorimetric vessel at the same flow rate and temperature as those used in the experiment to establish a steady baseline deflection. The following operations then took place to a strict timetable. The liquid nitrogen stored ampoule was thawed at 38°C for 3 min and then stirred for 20 sec on a whirlimixer. The bacterial suspension (0.5-1.5ml) volumes was inoculated into the medium (100ml) two minutes after completion of thawing. A Gilson automatic pipette was used for inoculation. The calorimeter inlet flow-line was placed in the incubation medium 30 seconds after inoculation. The flowing incubation medium reached the calorimetric vessel two min after inlet flow-line insertion. At this time the recording of the p-t curves was started. Eight min after inoculation the outflow from the calorimeter was returned to the fermenter (after the "baseline" medium had run to waste but before the inoculated medium ran to waste) thus making a closed system. Aeration was started as soon as the inlet tube was inserted in the fermenter. Microbiological purity of the culture was checked by plating out a sample of the culture at the end of each incubation on nutrient agar (lab M).
(§4) The output of calorimetric experiments is a plot of power (energy evolution per unit of time) as a function of time. The unit of power (p) is the Watt (W) and the unit of time is the hour (h). In some experiments seconds (s) were used as time unit.
(§5) However when the concentration of organisms was 5.1 x 10^6 cfu/ml which was the inoculum used in the microcalorimetric incubations the MIC was increased to 2 µg/ml; the effect was also bacteriostatic.

[2] = tested on: Bordetella Bronchiseptica; experiment: MIC / MBC against Bordetella bronchiseptica; format: cell-based; details: as printed in table heads
Micrococcus flavus [3] = experiment: Flow microcalorimetry (p-t curves) of growing Micrococcus flavus; format: cell-based
Source text: as §1, §2, §3, §4
This point occurred at an increase in deflection of 29.5% from the baseline value.

E. coli [4] = experiment: Electron microscopy of E. coli treated with ZNB; format: cell-based; details: response not lethal for the bacterium; listed as ZNB
respiring E.coli = experiment: Microcalorimetry of respiring E. coli in glucose buffer; format: cell-based; details: for response on addition to respiring E.coli: highest concentration added 300µg/ml
Experimental: E.coli was suspended in 10% DMSO prior to freezing and the viable counts were for batch 1: pre-freeze: 4.0 ± 0.6_ x 10^10 cfu/ml and post -freeze 2.0 ± 0.44 x 10^10 cfu/ml and for batch 2: pre-freeze: 3.45 ± 0.58 x 10^10 cfu/ml and post-freeze 2.93 ± 0.43 x 10^10 cfu/ml. The freezing rate for both batches was 20°C/min the survival rate was 50% for batch 1 and 85% for batch 2. These differences may have been due to batch 1 being kept for 24h at 4°C before being frozen.
The respiration experiments were carried out in glucose buffer at different pH. The respiration curves obtained from batch 1 (inoculum 2 x 10^10 cfu/ml) and batch 2 Inoculum 3.2 x 10^10 cfu/ml) were essentially similar and a mean was used as a reference). The respiration experiments were carried out at pH 7 for polymyxin and Znbacitracin and at pH 8 for neomycin. No differences in p-t control curves could be observed at pH 7 or pH 8.
The p-t curves rose and reached a plateau as has been observed for respiration of yeasts and some 20 min later fell to a lower plateau value. Prior incubation of the cells in the buffered glucose for periods up to 20 min before presentation to the calorimeter could reduce or entirely remove this effect.

E. coli [5] = experiment: MIC / MBC against E. coli; format: cell-based
Micrococcus flavus [6] = experiment: MIC / MBC against Micrococcus flavus; format: cell-based
[7] = tested on: Bordetella Bronchiseptica; experiment: Flow microcalorimetry (p-t curves) of growing Bordetella bronchiseptica; format: cell-based
Source text: as §1, §2, §3, §4
After successful freezing of Bord. bronch p-t curves for growth in different concentrations of glutamic acid from 0.1%-0.5% were obtained. It was concluded that a medium containing 0.2% glutamic acid would be sufficient for a good deflection in the microcalorimeter minimising the possibility of the bacteria clogging in the microcalorimetric cell or in the teflon tubes leading to and from the microcalorimetric cell. A pH of 7 was used in all the following experiments as this is the optimum pH for polymyxin - lipid binding.
It was of vital importance to maintain a constant oxygen tension; this was achieved by using saturation concentrations of oxygen. It was decided to use the height of the small peak as full scale deflection for the antibiotic assay as the increase in power was exponential up to this point and the peak occurred at a convenient time. This choice of assay point was empirical. The inoculum was 1.1 ± 0.06 x 10^8 cfu/ml for all the microclalorimetric incubations. […]

B. pumilus = experiment: MIC determination against B. pumilus; format: cell-based, Bacillus pumilus; details: as printed in table heads
Experimental: as §5

[8] = 0.02 ug/ml added at 50 % of p-t curve
[9] = 0.6-1 ug/ml added at 0 % of p-t curve

For `CN[C@H](CC(C)C)C(=O)N[C@H]1C(=O)N[C@@H](CC(N)=O)C(=O)N[C@H]2C(=O)N[C@H]3C(=O)N[C@H](C(=O)N[C@H](C(=O)O)c4cc(O)cc(O)c4-c4cc3ccc4O)[C@H](O)c3ccc(c(Cl)c3)Oc3cc2cc(c3O[C@@H]2O[C@H](CO)[C@@H](O)[C@H](O)[C@H]2O[C@H]2C[C@](C)(N)[C@H](O)[C@H](C)O2)Oc2ccc(cc2Cl)[C@H]1O` [vancomycin], the “effect on the eye” value [1] was “without any effect to the eye”.
In the case of Znbacitracin, the “effect on the cell surface (electron micrographs)” value (M. flavus) is reported as “Protrusions on the cell wall can be observed”, the “Observed effect on p-t curves” value (Bacillus pumilus) is reported as “No effect on p-t curve” and the MIC [2] is reported as 100 µg/mL. The “concentrations at which no further response could be recorded” value (Micrococcus flavus [3]) was “higher than 4 µg/ml”, the “concentrations at which no variation in p-t curves could be observed” value (Micrococcus flavus [3]) was “lower than 0.02 µg/ml” and the Comments (Micrococcus flavus [3]; [8]) was “No inhibition observed”. For the same molecule, the “Observed effect on p-t curves” value (Micrococcus flavus [3]; [8]) was “Standard growth curve”, the “appearance of p-t curves” value (Micrococcus flavus [3]; 0.02-0.8 µg/ml (0.1 x MIC-4 x MIC)) was “a power plateau immediately after addition of the antibiotic for varying periods of time and then an increase in power followed by a further small peak” and the “Peak of growth curve later than standard curve” value (Micrococcus flavus [3]; 0.1-1 ug/ml added at 50 % of p-t curve) was “Peak of growth curve occurs 60 min later than standard curve”. The “Observed effect on p-t curves” value (Micrococcus flavus [3]; 0.1-1 ug/ml added at 50 % of p-t curve, CV 1.8%) was “Linear log dose response curve 2 hours after addition of antibiotic CV 1.8%”, the Comments (Micrococcus flavus [3]; 0.2-0.3 ug/ml added at 0 % of p-t curve) was “Initial growth promoting effect - delayed peak after 9 hours” and the “Observed effect on p-t curves” value (Micrococcus flavus [3]; 0.2-0.3 ug/ml added at 0 % of p-t curve, CV 2.3%, n=10) was 1.4 standard curve CV =2.3% , n=10. For the same molecule, the Comments (Micrococcus flavus [3]; [9]) was “Bacteriocidal effect confirmed all bacteria are dead”, the “Observed effect on p-t curves” value (Micrococcus flavus [3]; [9]) was “Total inhibition of growth” and the “Observed effect on p-t curves” value (Micrococcus flavus [3]; 1-4 ug/ml added at 50 % of p-t curve, cv 1.4% n=10) was “Linear log dose response curve 20 min after addition of antibiotic cv = 1.4% n= 10”. The “appearance of p-t curves” value (Micrococcus flavus [3]; 5 x MIC - 20 x MIC) was “held at a plateau for a varying amount of time and then decreased towards a baseline value”, the “largest dose that could be distinguished” value (Micrococcus flavus [3]; added at 50 % of p-t curve) was 4 ug/ml largest dose that could be distinguished any higher dose s gave identical dose response curves and the “concentration with initial growth promoting effect” value (Micrococcus flavus [3]; added at inoculum) was 0.2 to 0.3 µg/mL. For the same molecule, the “effect on bacterial membrane (electron micrographs)” value (E. coli [4]) was “protrusions have been observed on the bacterial membrane; also recorded: did actually cause protrusions to occur on the bacterial membrane”, the Comments (respiring E.coli; ZNB 300 ug/ml - 1000 ug/ml) was “Resistance demonstrated” and the “Observed effect on p-t curves” value (respiring E.coli; ZNB 300 ug/ml - 1000 ug/ml, pH 7) was “No response”. The “response on addition to respiring E.coli” value (respiring E.coli) was “No response could be observed”, the “response on addition to respiring E.coli” value (respiring E.coli; listed as ZNB) was “no effect on power output” and the MBC (E. coli [5]; as printed in table head) was greater than 1000 µg/mL. The MIC (E. coli [5]; as printed in table head) was greater than 1000 µg/mL, the MIC (E. coli [5]; text) was greater than 1000 µg/mL and the MBC (Micrococcus flavus [6]; as printed in table head) was “Ug/ml MIC & MBC 0.2 ug/ml”. The MIC (Micrococcus flavus [6]; listed as ZNB) was 0.2 µg/mL, the “effect on growing cultures” value ([7]; ZNB added to growing cultures (Fig. 17)) was “a small plateau was reached before growth reoccurred” and the “Observed effect on p-t curves” value ([7]; single antibiotic at its MIC (0.25ug/ml Neo; 100ug/ml ZNB), added at 50 % of p-t curve) was “Slightly delayed peak”. For the same molecule, the MIC (B. pumilus) was 20 µg/mL.
